One data set deals with Vero-E6. As to the kind of experiment: Cytotoxicity counter screen (cell viability, CellTiter-Glo). It is filed as cell-based. As to conditions: for IC50: Chlorocebus sabaeus, read-out: IC50 (μM) cell viability. How it is done:
Compound cytotoxicity was assessed in a BSL-2 counter screen as follows: Cell culture media (MEM, 1% Pen/Strep/GlutaMax, 1% HEPES, 2% HI FBS) was dispensed at 5 μl/well into ARPs and incubated at room temperature to allow for compound dissolution. Vero-E6 (selected for high ACE2 expression) was dispensed into assay plates at 4000 cells/well in 25 μl media. Assay plates were incubated for 72 h at 37 C, 5% CO2, 90% humidity. Then, 30 μl/well of CellTiter-Glo (Promega #G7573) was dispensed into the assay plate. Luminescence was read using a BMG PHERAstar plate reader following incubation at room temperature for 10 min to measure cell viability.
In general terms: The purpose of a counterscreen is to sort out artefacts and off-target activity.

Another data set in a line: in vitro. As to conditions: rat, microsomes.
A short description of data set [1]: Rat liver microsomal (RLM) stability. The note with it: rat, microsomes. (In general: Microsomes from liver hold many membrane-bound enzymes, among them those of drug oxidation.)
Another data set concerns SARS-CoV-2. As to the kind of experiment: SARS-CoV-2 viral titer in human bronchial epithelial cells (HBEC; EpiAirway). It is filed as cell-based. The note with it: dilutions 0.01, 0.1, 1, 10 micrograms per mL. How it is done:
In the first part of the experiment, the test compounds were diluted in Assay medium (AIR-100-ASY). The test compound dilutions (0.01, 0.1, 1, 10 micrograms per mL) were added to each insert on the apical layer (0.15 mL) and basal layer (0.85 mL). Following the 1 h treatment, the apical medium was removed, and the basal side was replaced with fresh compound. Virus (0.15 mL) was then added to each insert on the apical layer, removed after 1 h and washed with 0.4 mL TEER buffer. The basal side medium/compound was replaced with 1 mL of Assay medium. Every twenty-four hours, the apical layer of the tissues were washed with 0.4 mL of TEER buffer and aliquoted to separate microfuge tubes. Trizol LS (1.2 mL) was added to each tube, pipetted up and down several times and stored at −80° C. The basal layer supernatant (1 mL) was collected from each well, aliquoted into separate microfuge tubes and stored at −80° C. The basal side medium was replaced with 1 mL of Maintenance Medium.
In the second part of the experiment, RNA was isolated from the trizol samples and the supernatants from all treatments were tittered by plaque assay or TCID50 to determine the amount of virus present in each sample.

Data set [2] is described as follows: Parallel artificial membrane permeability assay (PAMPA). The note with it: PAMPA, Tier I ADME. A general note: In PAMPA a lipid-coated filter parts donor from acceptor wells.
The mark [3] stands for this setting: uninfected Vero-E6, 72 h, CellTiter-Glo.

Like-named read-outs stand apart in the source and are kept apart here.

Broadly, the IC50 is the concentration at which inhibition is half-maximal. As a reminder, the half-life is the time in which the quantity being followed falls by half. Read a high half-life as slow loss. With `O=C(Nc1ccc(C(F)(F)F)c(F)c1)c1cc(Br)ccc1O` [Compound 59, 5-bromo-N-(3-fluoro-4-(trifluoromethyl)phenyl)-2-hydroxybenzamide], in the data set with Vero-E6 (Vero C1008, uninfected Vero-E6, 72 h, CellTiter-Glo), the half-inhibitory concentration (IC50) turned out to be 0.45 µM. The same molecule returned an Efficacy cell viability with Vero-E6 (setting [3]) of −91.7. Moreover, the half-life in the data set “in vitro” was above 30 min.
The molecule `O=C(Nc1ccc([N+](=O)[O-])cc1Cl)c1cc(Br)ccc1O` [Compound 6, 5-bromo-N-(2-chloro-4-nitrophenyl)-2-hydroxybenzamide] came in with a half-life in data set [1] above 30 min. The “inhibition of SARS-CoV-2 (viral titer)” value with SARS-CoV-2 was “effectively inhibited SARS-CoV-2 in human bronchial epithelial cells at sub-nanomolar and nanomolar concentrations”. Further, the IC50 in the data set on Vero-E6 (Vero C1008, 72 h) stood at 0.4 µM. Moreover, the Efficacy cell viability in the data set on Vero-E6 (setting [3]) was −94.8. Also, the Permeability in data set [2] was 67 10^−6 cm/sec.

Source of the values: patent publication US20240002332A1, “Small Molecule Inhibitors of SARS-CoV-2 Infections” (priority 2020, published 2024).
